According to EP0565317A1, “(2-(2-hydroxy-2 phenylethylamino)ethoxy) phenyl derivatives, processes and intermediates for their preparation, pharmaceutical compositions containing them and their use as Beta-3-adrenoceptor agonists” (ZENECA LIMITED, priority 1992, dated 1993):

What was measured:
[1] = test system: BAT mitochondria; test: GDP binding in BAT mitochondria of cold-adapted rats as a measure of thermogenic activation (test a); type: in vivo; details: Rattus norvegicus, 1 h; oral; dose producing 50% of the effect of isoprenaline (1 mgkg-1) on GDP binding; rats sacrificed one hour after dosing
[2] = test system: Rats; test: Heart rate in rats adapted to a thermoneutral environment; D500 dose and selectivity index (test b); details: selectivity index = ratio of D500 to ED50 in test (a)
[3] = test system: Rats; test: Metabolic rate by closed-circuit oxygen consumption in fasted rats (test c); type: in vivo; details: at 1mgkg^-1 p.o.; determined for at least one hour after dosing

## COCC(=O)Cc1ccc(OCCNCC(O)c2ccccc2)cc1 (stereo not shown) [Example 1, 1-[4-(2-(2-Hydroxy-2-phenylethylamino)ethoxy)phenyl]-3-methoxypropan-2-one]
[1]
  ED50: 0.98 mg/kg
[2]; oral
  SI: > 50
[3]
  metabolic rate: 4.99 ml O2 min^-1 (Kg^0.75)^-1

## CC(C)NCC(O)c1ccc(O)c(O)c1 (stereo not shown) [isoprenaline, reference compound]
[2]; route not stated
  SI: 0.06
